As usually defined, the IC50 is the midpoint of a concentration-inhibition curve.

Read-outs that look alike come from different tables or passages of the source.

This note sets out measurements from patent publication US9120749B2, “Quinoline derivatives and MELK inhibitors containing the same” (ONCOTHERAPY SCIENCE, INC., priority 2010, dated 2015).

For test [1], the system named is T47D cells. Put plainly: Cell-based assay: anti-proliferative activity, Cell Counting Kit-8, 72 hours (T47D). The settings on record: Homo sapiens, T47D, 72 h. The gist of the method:
(§1)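 Proliferation read with Cell Counting Kit-8 after 72 hours of inhibitor treatment, from seeding of 2,000–3,000 cells/well. Lines: T47D, A549, BT-549; HT-1197, lacking MELK by western blot, served as negative control. IC50 derived.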
(Tetrazolium dyes change colour on reduction, which living cells bring about.)

For test [2], the system named is HT-1197 cells. As to the kind of experiment: Cell-based assay: anti-proliferative activity, Cell Counting Kit-8, 72 hours (HT-1197, negative control without MELK expression). To be noted: Homo sapiens, HT1197, 72 h, HT1197 cells (negative control, no MELK expression), 72 hours. The gist of the method: as §1
Test [3] deals with MELK (Homo sapiens, UniProt Q14680). Put plainly: Kinase assay: MELK activity, phosphorylation of FITC-labeled histone H3 peptide measured by IMAP fluorescence polarization. The settings on record: read-out: IC50 (μM) (kinase assay). In kind it is biochemical. Put shortly:
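Fluorescence polarization was measured 0.5 h (room temperature) after quenching with threefold volume of progressive binding solution. Test compounds from 12.5 mM DMSO stocks were assayed at 1% DMSO.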
(Fluorescence polarisation rises when a labelled molecule tumbles more slowly, as on binding a larger partner.)

In test [4] the test system is A549 cells. As to the kind of experiment: Cell-based assay: anti-proliferative activity, Cell Counting Kit-8, 72 hours (A549). To be noted: Homo sapiens, A549, 72 h, 72 hours. Put shortly: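 Cell Counting Kit-8 read-out of A549 growth after 72 hours of inhibitor exposure, cells plated in 96-well format. Values reported as IC50.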
Test [5] deals with DU4475. Put plainly: Cell-based assay: anti-proliferative activity, Cell Counting Kit-8, 72 hours (DU4475). To be noted: Homo sapiens, DU-4475, DU4475 cells.
The mark [6] stands for this setting: 50 micro-M ATP, FITC-labeled histone H3 peptide substrate, IMAP fluorescence polarization.

Chain of MELK (Q14680 whole entry, looked up): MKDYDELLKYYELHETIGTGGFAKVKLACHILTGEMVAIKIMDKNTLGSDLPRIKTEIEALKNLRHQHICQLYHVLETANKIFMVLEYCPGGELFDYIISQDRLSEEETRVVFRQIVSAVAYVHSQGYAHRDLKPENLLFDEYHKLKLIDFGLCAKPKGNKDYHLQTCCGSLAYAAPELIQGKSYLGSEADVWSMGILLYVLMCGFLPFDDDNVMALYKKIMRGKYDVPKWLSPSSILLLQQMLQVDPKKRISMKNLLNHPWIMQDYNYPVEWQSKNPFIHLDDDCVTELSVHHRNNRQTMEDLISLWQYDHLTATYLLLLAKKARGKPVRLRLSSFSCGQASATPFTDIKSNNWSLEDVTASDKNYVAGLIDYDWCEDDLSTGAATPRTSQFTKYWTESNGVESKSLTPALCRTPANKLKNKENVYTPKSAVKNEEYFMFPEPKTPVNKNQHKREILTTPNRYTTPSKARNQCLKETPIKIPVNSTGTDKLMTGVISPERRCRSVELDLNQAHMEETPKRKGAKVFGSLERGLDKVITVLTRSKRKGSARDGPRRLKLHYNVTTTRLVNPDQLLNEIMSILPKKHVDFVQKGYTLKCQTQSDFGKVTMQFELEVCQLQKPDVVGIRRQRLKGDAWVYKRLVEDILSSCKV

As to `NCc1ccc(Nc2c(C(=O)C3CC3)cnc3ccc(-c4cc(Cl)c(O)c(Cl)c4)cc23)cc1` [Example 507, {4-[4-(Aminomethyl)phenylamino]-6-(3,5-dichloro-4-hydroxyphenyl)quinolin-3-yl}(cyclopropyl)methanone], the IC50 was determined as 0.094 µM in test [1]; 0.58 µM in test [2]; 0.0038 µM in test [3]; 0.059 µM in test [4]; 0.018 µM in test [5].
`CC(C)C(=O)c1cnc2ccc(-c3cc4cc(O)ccc4[nH]3)cc2c1N[C@H]1CC[C@H](N)CC1` [Example 480]: the IC50 worked out at 0.59 µM in test [1]; 4.6 µM in test [2]; 0.054 µM in test [3]; 2.7 µM in test [4]; 0.93 µM in test [5].
On to `O=C(c1cnc2ccc(-c3cc(F)c(O)c(Cl)c3)cc2c1Nc1ccc(Cn2ccnc2)cc1)C1CC1` [Example 489, (4-(4-((1H-imidazol-1-yl)methyl)phenylamino)-6-(3-chloro-5-fluoro-4-hydroxyphenyl)quinolin-3-yl)(cyclopropyl)methanone], for which the IC50 was determined as 1.1 µM in test [1]; 5.1 µM in test [2]; 0.019 µM in test [3]; 1.4 µM in test [4]; 0.97 µM in test [5].
For `CN(C)C[C@H]1CC[C@H](Nc2c(S(C)(=O)=O)cnc3ccc(-c4cc(F)c(O)c(Cl)c4)cc23)CC1` [Example 423], the IC50 came out at 0.42 µM in test [1]; 2.4 µM in test [2]; 0.0063 µM in test [3] (setting [6]); 0.93 µM in test [4]; 0.31 µM in test [5].
`COc1cc(-c2ccc3ncc(C(=O)C4CC4)c(N4CCN(C(=O)CN(C)C)CC4)c3c2)cc(Cl)c1O` [Example 437, 1-(4-(6-(3-chloro-4-hydroxy-5-methoxyphenyl)-3-(cyclopropanecarbonyl)quinolin-4-yl)piperazin-1-yl)-2-(dimethylamino)ethanone]: the 50% inhibitory concentration (IC50) in test [1] stood at 0.28 µM; in test [2], 1.7 µM; in test [3] (setting [6]), 0.0011 µM; in test [4], 0.19 µM; in test [5], 0.22 µM.
For the molecule `COc1cc(-c2ccc3ncc(C(C)=O)c(N4CCN(C(=O)CN(C)C)CC4)c3c2)cc(Cl)c1O` [Example 477, 1-(4-(3-acetyl-6-(3-chloro-4-hydroxy-5-methoxyphenyl)quinolin-4-yl)piperazin-1-yl)-2-(dimethylamino)ethanone], the half-maximal inhibitory concentration (IC50) is 0.87 µM in test [1]; 4.7 µM in test [2]; 0.0016 µM in test [3]; 0.36 µM in test [4]; 0.3 µM in test [5].
In the case of `COc1cc(-c2ccc3ncc(C(=O)C4CC4)c(N4CCN(CCN5CCCC5)CC4)c3c2)cc(Cl)c1O` [Example 394, (6-(3-chloro-4-hydroxy-5-methoxyphenyl)-4-(4-(2-(pyrrolidin-1-yl)ethyl)piperazin-1-yl)quinolin-3-yl)(cyclopropyl)methanone], the IC50 in test [1] is 0.4 µM; in test [2], 5.3 µM; in test [3] (setting [6]), 0.0018 µM; in test [4] it was 0.25 µM; in test [5], 0.24 µM.
In the case of `COc1cc(-c2ccc3ncc(C(=O)C4CC4)c(-c4cnc(N5CCN(C)CC5)nc4)c3c2)cc(Cl)c1O` [Example 475, (6-(3-chloro-4-hydroxy-5-methoxyphenyl)-4-(2-(4-methylpiperazin-1-yl)pyrimidin-5-yl)quinolin-3-yl)(cyclopropyl)methanone], the IC50 turned out to be 0.53 µM in test [1]; 4.7 µM in test [2]; 0.072 µM in test [3]; 0.79 µM in test [4]; 1.9 µM in test [5].
Turning to `CN1CCN(Cc2ccc(Nc3c(C(=O)C4CC4)cnc4ccc(-c5cc(Cl)c(O)c(Cl)c5)cc34)cc2)CC1` [Example 397, Cyclopropyl{6-(3,5-dichloro-4-hydroxyphenyl)-4-[4-((4-methylpiperazin-1-yl)methyl)phenylamino]quinolin-3-yl}methanone], the IC50 in test [1] stood at 0.33 µM; in test [2] it was 5.2 µM; in test [3] (setting [6]) it was 0.0076 µM; in test [4] it was 0.15 µM; in test [5] it was 0.088 µM.
On to `O=C(c1cnc2ccc(-c3cc(Cl)c(O)c(Cl)c3)cc2c1Nc1cnc(N2CCNCC2)nc1)C1CC1` [Example 497, cyclopropyl(6-(3,5-dichloro-4-hydroxyphenyl)-4-((2-(piperazin-1-yl)pyrimidin-5-yl)amino)quinolin-3-yl)methanone], for which the IC50 in test [1] came out at 0.052 µM; in test [2], 0.97 µM; in test [3], 0.0021 µM; in test [4], 0.12 µM; in test [5], 0.056 µM.
For `CN(C)CC(=O)N1CC2CC1CN2c1c(C(=O)C2CC2)cnc2ccc(-c3ccc(O)c(Cl)c3)cc12` (stereo not drawn) [Example 464], the IC50 came to 6.6 µM in test [1]; 17 µM in test [2]; 0.051 µM in test [3] (setting [6]); 5.5 µM in test [4]; 3.4 µM in test [5].
In the case of `CN(C)Cc1ccc(Nc2c(S(C)(=O)=O)cnc3ccc(-c4cc(Cl)c(O)c(Cl)c4)cc23)cc1` [Example 400, 2,6-dichloro-4-(4-((4-((dimethylamino)methyl)phenyl)amino)-3-(methylsulfonyl)quinolin-6-yl)phenol], the IC50 was found to be 0.23 µM in test [1]; 1.8 µM in test [2]; 0.0034 µM in test [3] (setting [6]); 0.3 µM in test [4]; 0.07 µM in test [5].
`O=C(c1cnc2ccc(-c3cc(Cl)c(O)c(Cl)c3)cc2c1Nc1ccc(N2CCNCC2)nc1)C1CC1` [Example 409, Cyclopropyl{6-(3,5-dichloro-4-hydroxyphenyl)-4-[6-(piperazin-1-yl)pyridin-3-ylamino]quinolin-3-yl}methanone]: the IC50 was found to be 0.074 µM in test [1]; 1.6 µM in test [2]; 0.0017 µM in test [3] (setting [6]); 0.26 µM in test [4]; 0.098 µM in test [5].
The like results for `COc1cc(-c2ccc3ncc(C(=O)C4CC4)c(Nc4ccc(CN5CCN(C)CC5)cc4)c3c2)cc(Cl)c1O` [Example 398, (6-(3-chloro-4-hydroxy-5-methoxyphenyl)-4-(4-((4-methylpiperazin-1-yl)methyl)phenylamino)quinolin-3-yl)(cyclopropyl)methanone] were, in that order, 0.78 µM, 4.7 µM, 0.0084 µM, 0.38 µM and 0.73 µM.
For `COc1cc(-c2ccc3ncc(C(=O)C4CC4)c(Nc4ccc(CN5CCOCC5)cc4)c3c2)cc(Cl)c1O` [Example 462], in that order: 0.44 µM, 6 µM, 0.066 µM, 0.7 µM and 1.1 µM.
Turning to `CC(=O)c1cnc2ccc(-c3cnc(C#N)nc3)cc2c1N[C@H]1CC[C@H](CN(C)C)CC1` [Example 418], the IC50 came to 0.23 µM in test [1]; 1.4 µM in test [2]; 0.0073 µM in test [3] (setting [6]); 0.95 µM in test [4]; 0.5 µM in test [5].
On to `COc1cc(-c2ccc3ncc(C(=O)C(C)C)c(N[C@H]4CC[C@H](N)CC4)c3c2)cc(Cl)c1O` [Example 502, 1-(4-((trans-4-aminocyclohexyl)amino)-6-(3-chloro-4-hydroxy-5-methoxyphenyl)quinolin-3-yl)-2-methylpropan-1-one], for which the concentration for half-maximal inhibition (IC50) came out at 0.045 µM in test [1]; 0.31 µM in test [2]; 0.007 µM in test [3]; 0.1 µM in test [4]; 0.041 µM in test [5].
The like results for `COc1cc(-c2ccc3ncc(C(=O)C4CC4)c(Nc4ccc(CN)cc4)c3c2)cc(Cl)c1O` [Example 506, (4-(4-(aminomethyl)phenylamino)-6-(3-chloro-4-hydroxy-5-methoxyphenyl)quinolin-3-yl)(cyclopropyl)methanone] were, in that order, 0.15 µM, 0.74 µM, 0.0032 µM, 0.18 µM and 0.13 µM.
Regarding `O=C(c1cnc2ccc(-c3cc(F)c(O)c(Cl)c3)cc2c1N1CCN(CCN2CCCC2)CC1)C1CC1` [Example 402, (6-(3-chloro-5-fluoro-4-hydroxyphenyl)-4-(4-(2-(pyrrolidin-1-yl)ethyl)piperazin-1-yl)quinolin-3-yl)(cyclopropyl)methanone], the IC50 in test [1] was found to be 0.88 µM; in test [2], 5.1 µM; in test [3] (setting [6]), 0.0058 µM; in test [4], 1.2 µM; in test [5], 0.48 µM.
On to `CN(C)CC1CCN(c2c([S+](C)[O-])cnc3ccc(-c4ccc(O)c(Cl)c4)cc23)CC1` (stereo not drawn) [Example 466], for which the half-inhibitory concentration (IC50) in test [1] came to 0.67 µM; in test [2], 6.7 µM; in test [3] (setting [6]), 0.016 µM; in test [4], 1.9 µM; in test [5] it was 1.1 µM.
Turning to `NC[C@H]1CC[C@H](Nc2c(C(=O)C3CC3)cnc3ccc(-c4cc(F)c(O)c(Cl)c4)cc23)CC1` [Example 501, {4-[trans-4-(Aminomethyl)cyclohexylamino]-6-(3-chloro-5-fluoro-4-hydroxyphenyl)quinolin-3-yl}(cyclopropyl)methanone], the IC50 was determined as 0.061 µM in test [1]; 1.2 µM in test [2]; 0.046 µM in test [3]; 0.57 µM in test [4]; 0.031 µM in test [5].
